Paper PMC7326016, “Structural Studies of Glutamate Dehydrogenase (Isoform 1) From Arabidopsis thaliana, an Important Enzyme at the Branch-Point Between Carbon and Nitrogen Metabolism” (Frontiers in Plant Science, 2020)

Assays:
[1] = target: T1, Glutamate dehydrogenase isoform 1 (AtGDH1) (Arabidopsis thaliana, UniProt Q43314); assay: crystal structure at […] Å (one closed subunit; ligand captured from E. coli; polder map); assay type: binding
T1 construct: gene GDH1; full-length, 411 residues, homohexamer

[2] = target: T1, Glutamate dehydrogenase isoform 1 (AtGDH1); assay: ITC (in presence of […] 2OG) and crystal structure at […] Å; assay type: binding

T1 sequence (Q43314 whole entry, canonical isoform): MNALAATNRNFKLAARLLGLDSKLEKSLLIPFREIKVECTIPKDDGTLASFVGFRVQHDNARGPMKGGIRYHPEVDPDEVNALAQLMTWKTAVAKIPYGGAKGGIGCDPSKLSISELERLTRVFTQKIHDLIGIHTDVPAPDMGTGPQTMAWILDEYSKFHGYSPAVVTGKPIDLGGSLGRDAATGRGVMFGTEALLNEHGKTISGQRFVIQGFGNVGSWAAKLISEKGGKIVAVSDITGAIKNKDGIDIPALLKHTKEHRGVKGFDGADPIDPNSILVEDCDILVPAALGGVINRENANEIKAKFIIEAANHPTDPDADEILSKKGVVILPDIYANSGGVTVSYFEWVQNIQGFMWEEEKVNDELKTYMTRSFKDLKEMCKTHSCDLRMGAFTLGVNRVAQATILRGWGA

Row | Structure (SMILES) | crystal structure at 2.03 Å (one closed subunit); ligand captured from E. coli; p [1] | Kd [2] [µM]
1 | O=C(O)CCC(=O)C(=O)O [2-oxoglutarate] | the closed conformation subunit contains 2OG, the GDH reaction product, bound in the active site | 
2 | NC(=O)c1ccc[n+]([C@@H]2O[C@H](COP(=O)([O-])OP(=O)(O)OC[C@H]3O[C@@H](n4cnc5c(N)ncnc54)[C@H](O)[C@@H]3O)[C@@H](O)[C@H]2O)c1 [NAD^+] |  | 72 ± 6
